# Measured values reported in article PMC6173696, “Structural properties of a haemophore facilitate targeted elimination of the pathogen Porphyromonas gingivalis” (Nature Communications, 2018).
# Assays:
# [1] = test system: P. gingivalis wild-type W83; assay: Checkerboard / broth micro-dilution assay (MIC, MBC), wild-type W83; format: cell-based, Porphyromonas gingivalis
# Excerpt: (§1) Fig. 5 A prototype DPIX-conjugated antibiotic binds HusA and inhibits P. gingivalis. a The chemical structure of the deuteroporphyrin-lysine-metronidazole adduct, P8. b NMR signal intensity changes (black) and ^1H^N CSPs (red/green) for HusA upon addition of P8 (measured from ^15N-HSQC spectra shown in Supplementary Figure 21). c In silico docking of P8 to the energy minimized structure of HusA (conformer set 1), with residues experiencing NMR signal loss (orange) or CSPs (red/green) mapped to the structure (colouring as described in Fig. 2d). d Scaled and corrected fluorescence at 335 nm during titration of 1 μM of HusA with increasing concentrations of P8, haemin or DPIX. e Comparison of P8 inhibitory effect towards P. gingivalis wild-type W83 and husA mutants using checkerboard analysis. Serial dilutions of antibiotics (horizontal axis) were applied to a 96-well plate with different P. gingivalis strains (vertical axis). Serial dilutions of DPIX were also supplemented into wild-type W83 group to evaluate the competitive effect against P8. Absorption at OD600 of each well was recorded after 24 h of incubation. The OD600 of each strain grown in the absence of antibiotics was defined as 100% growth, which was applied to normalise the reading collected from other wells. The normalised percentage of each well was plotted in the checkerboard. Metronidazole alone and in combination with PPIX or DPIX was applied as control. f Intracellular killing assay of P8 antibiotics. Gingival H413 epithelial cells were infected by P. gingivalis W83 and then treated with P8 at various concentrations. Recovered bacteria were determined by CFU count. Metronidazole and DMSO were used as control. Three independent experiments with triplicate assays were conducted. […]
# [2] = test system: P. gingivalis W83 within gingival H413 epithelial cells; assay: Intracellular killing assay in infected H413 epithelial cells; format: cell-based, Porphyromonas gingivalis; settings: H413 cells infected by W83, CFU count
# Excerpt: as §1, with “The normalised percentage of each well was plotted in the checkerboard. Metronidazole alone and in combination with PPIX or DPIX was applied as control. f Intracellular killing assay of P8 antibiotics. Gingival H413 epithelial cells were infected by P. gingivalis W83 and then treated with P8 at various concentrations.” left out, “count.” for “count. Metronidazole and DMSO were used as control. Three independent experiments with triplicate assays were conducted.”
# [3] = test system: H413 gingival epithelial cell; format: cell-based, Human
# Procedure: Human gingival epithelial cells were grown to confluence and seeded on plastic chamber slides (75 × 25 mm^2) for incubation in 5% CO2 atmosphere overnight. Bacterial cells were co-incubated with epithelial cells at 37 °C for 2 h. After exposure to the antibiotics, epithelial cells were washed in PBS and incubated in culture media containing 5% FCS for 24 h. Subsequently, samples in the chamber slides were fixed with 4% fresh paraformaldehyde in PBS for 30 min at room temperature, washed in PBS, and permeabilised by ice-cold methanol for 5 min. Samples were then blocked overnight with 10% FCS supplemented with 0.05% (v/v) Triton X-100 in PBS buffer. Intracellular P. gingivalis was stained using the primary antibody IIB2[44] and fluorochrome-conjugated secondary antibody. […] Labelled epithelial cells with invaded bacteria were detected using an Olympus FV1000 confocal laser scanning microscope. In addition, the intrinsic fluorescence of P8 allowed temporal tracking of internalisation of P8 into epithelial cells in a separate experiment. Live cell images were recorded using a DeltaVision Elite Core Microscope.
# Supplementary Figure 23. (A) UV-vis spectra of 10 µM P8 alone and in the presence of 10 µM HusA. (B) Stability assay of P8 in the presence of gingival epithelial cell lysate. The intensity of P8 fluorescence was applied to monitor the stability of P8 in the presence of cell lysate. […]
# HusA = assay: Acid-alkaline transition of UV-vis spectra, haemin bound to HusA and Y164A/F mutants; format: physicochemical, Porphyromonas gingivalis; settings: haemin bound to HusA and the Y164A/F mutants
# Procedure: Spectra were recorded in 0.1 M NaCl with 0.1 M of the following buffers: citrate, pH 5.0; BisTris-HCl, pH 5.5; BisTris-HCl, pH 5.75: BisTris-HCl, pH 6.0; sodium phosphate, pH 6.5; sodium phosphate, pH 7.0; sodium phosphate, pH 7.5; Tris-HCl, pH 8.0; sodium borate, pH 9.0; sodium borate/NaOH, pH 9.8; sodium carbonate, pH 10.0 (not all titration points were collected for each protein)
compound,measurement,setting,value
CC1=Cc2cc3[nH]c(cc4nc(cc5[nH]c(cc1n2)cc5C)C(C)=C4CCC(=O)N[C@@H](CCCCNC(=O)OC(C)(C)C)C(=O)NCCn1c([N+](=O)[O-])cnc1C)c(CCC(=O)O)c3C [P8],MBC,"[1]; Porphyromonas gingivalis, no growth recovery on eTSB agar plate, read-out: minimal bactericidal concentration",10 to 20 µM
same,MIC,"[1]; Porphyromonas gingivalis, planktonic W83, 24 h, anaerobic, read-out: minimal inhibitory concentration",1.25 to 2.5 µM
same,killing of extracellular P. gingivalis,[1]; planktonic W83,more effective than metronidazole
same,killing of intracellular P. gingivalis,[2],more effective than metronidazole
same,integrity of epithelial cells (confocal images),[3]; 20 µM P8,remain intact
same,accumulation in epithelial cells,[3]; over a 2-h period,progressive accumulation
C=CC1=C(C)c2cc3[nH]c(cc4nc(cc5[nH]c(cc1n2)c(C)c5CCC(=O)O)C(CCC(=O)O)=C4C)c(C)c3C=C.[Fe+3] [haemin],pKa of acid-alkaline transition,HusA,6.1–6.5
same,pKa of acid-alkaline transition,HusA; listed as haem,6-6.5
